Assay results taken from ChEMBL document CHEMBL1201861, “Genomics of Drug Sensitity in Cancer screening data, Wellcome Trust Sanger Institute”.

What was measured:
Test in all cases: cells
Conditions in all cases: Homo sapiens
[1] = system: ES7; format: functional, cell-based;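 further: growth inhibition of cultured human ES7 cells, read out as cell viability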
Description: SANGER: Inhibition of human ES7 cell growth in a cell viability assay.

[2] = system: NB69; format: functional, cell-based;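 further: growth inhibition of NB69 cells, determined by a cell viability assay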
Description: SANGER: Inhibition of human NB69 cell growth in a cell viability assay.

[3] = system: COR-L88; format: functional, cell-based;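 further: growth inhibition of COR-L88 cells, read out with a cell viability assay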
Description: SANGER: Inhibition of human COR-L88 cell growth in a cell viability assay.

[4] = system: A498; format: functional, cell-based;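 further: growth inhibition of human A498 cells, read out with a cell viability assay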
Description: SANGER: Inhibition of human A498 cell growth in a cell viability assay.

[5] = system: NCI-H209; format: functional, cell-based;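 further: growth inhibition of human NCI-H209 cells, measured by a cell viability assay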
Description: SANGER: Inhibition of human NCI-H209 cell growth in a cell viability assay.

[6] = system: LC-2-ad; format: functional, cell-based;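 further: growth inhibition of human LC-2-ad cells, read out with a cell viability assay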
Description: SANGER: Inhibition of human LC-2-ad cell growth in a cell viability assay.

[7] = system: COLO-668; format: functional, cell-based
Description: SANGER: Inhibition of human COLO-668 cell growth in a cell viability assay.

[8] = system: LS-411N; format: functional, cell-based
[9] = system: HCE-T; format: functional, cell-based;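 further: cell viability assay read-out, reporting inhibition of HCE-T cell growth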
Description: SANGER: Inhibition of human HCE-T cell growth in a cell viability assay.

[10] = system: MFH-ino; format: functional, cell-based;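 further: growth inhibition of human MFH-ino cells, read out by a cell viability assay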
Description: SANGER: Inhibition of human MFH-ino cell growth in a cell viability assay.

[11] = system: COLO-829; format: functional, cell-based
Description: SANGER: Inhibition of human COLO-829 cell growth in a cell viability assay.

[12] = system: NCI-H2126; format: functional, cell-based;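 further: growth inhibition of the cancer cell line, determined with a cell viability readout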
Description: SANGER: Inhibition of human NCI-H2126 cell growth in a cell viability assay.

[13] = system: LB2241-RCC; format: functional, cell-based;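 further: cell viability assay measuring how strongly the cultured human renal carcinoma line is prevented from growing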
Description: SANGER: Inhibition of human LB2241-RCC cell growth in a cell viability assay.

[14] = system: U-87 MG; format: functional, cell-based, U-87MG ATCC;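 further: growth inhibition of the cells measured with a viability assay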
Description: SANGER: Inhibition of human U-87-MG cell growth in a cell viability assay.

[15] = system: NMC-G1; format: functional, cell-based;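 further: growth inhibition of the NMC-G1 cell line, measured with a cell viability read-out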
Description: SANGER: Inhibition of human NMC-G1 cell growth in a cell viability assay.

[16] = system: HT-144; format: functional, cell-based
Description: SANGER: Inhibition of human HT-144 cell growth in a cell viability assay.

[17] = system: LB771-HNC; format: functional, cell-based;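 further: growth inhibition of LB771-HNC human cells, read out with a cell viability assay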
Description: SANGER: Inhibition of human LB771-HNC cell growth in a cell viability assay.

[18] = system: TE-1; format: functional, cell-based;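 further: growth inhibition of the human TE-1 cell line, read out with a cell viability assay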
Description: SANGER: Inhibition of human TE-1 cell growth in a cell viability assay.

[19] = system: EW-3; format: functional, cell-based;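 further: cell viability assay read-out, IC50 reflects inhibition of growth of the EW-3 cells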
Description: SANGER: Inhibition of human EW-3 cell growth in a cell viability assay.

[20] = system: NCI-H23; format: functional, cell-based;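 further: cell viability assay measuring growth inhibition of NCI-H23 cells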
Description: SANGER: Inhibition of human NCI-H23 cell growth in a cell viability assay.

[21] = system: TE-8; format: functional, cell-based;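 further: growth inhibition of TE-8 cells, measured with a cell viability readout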
Description: SANGER: Inhibition of human TE-8 cell growth in a cell viability assay.

[22] = system: A4-Fuk; format: functional, cell-based;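 further: growth inhibition of A4-Fuk cells, read out by a cell viability assay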
Description: SANGER: Inhibition of human A4-Fuk cell growth in a cell viability assay.

[23] = system: MPP-89; format: functional, cell-based;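 further: growth inhibition of human MPP-89 cells, read out with a cell viability assay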
Description: SANGER: Inhibition of human MPP-89 cell growth in a cell viability assay.

[24] = system: LS-123; format: functional, cell-based
Description: SANGER: Inhibition of human LS-123 cell growth in a cell viability assay.

[25] = system: KM12; format: functional, cell-based;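 further: KM12 cell growth inhibition, read out with a cell viability assay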
Description: SANGER: Inhibition of human KM12 cell growth in a cell viability assay.

[26] = system: D-502MG; format: functional, cell-based
Description: SANGER: Inhibition of human D-502MG cell growth in a cell viability assay.

[27] = system: LU-139; format: functional, cell-based
Description: SANGER: Inhibition of human LU-139 cell growth in a cell viability assay.

[28] = system: CW-2; format: functional, cell-based;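 further: growth inhibition of CW-2 cells, read out by a cell viability assay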
Description: SANGER: Inhibition of human CW-2 cell growth in a cell viability assay.

[29] = system: D283 Med; format: functional, cell-based
Description: SANGER: Inhibition of human D-283MED cell growth in a cell viability assay.

[30] = system: CTB-1; format: functional, cell-based
Description: SANGER: Inhibition of human CTB-1 cell growth in a cell viability assay.

[31] = system: NCI-H226; format: functional, cell-based;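 further: cell viability read-out used to gauge growth inhibition of the cells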
Description: SANGER: Inhibition of human NCI-H226 cell growth in a cell viability assay.

[32] = system: SNU-5; format: functional, cell-based;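 further: cell viability readout used to measure growth inhibition in human NCI-SNU-5 cells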
Description: SANGER: Inhibition of human NCI-SNU-5 cell growth in a cell viability assay.

[33] = system: PSN1; format: functional, cell-based;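 further: suppression of growth of human PSN1 cells, read out by a cell viability assay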
Description: SANGER: Inhibition of human PSN1 cell growth in a cell viability assay.

[34] = system: MHH-NB-11; format: functional, cell-based;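 further: growth inhibition of human MHH-NB-11 cells, read out by a cell viability assay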
Description: SANGER: Inhibition of human MHH-NB-11 cell growth in a cell viability assay.

[35] = system: DOHH-2; format: functional, cell-based;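 further: growth inhibition of human DOHH-2 cells, read out with a cell viability assay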
Description: SANGER: Inhibition of human DOHH-2 cell growth in a cell viability assay.

[36] = system: NH-12; format: functional, cell-based;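 further: growth inhibition of NH-12 cells, read out with a cell viability assay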
Description: SANGER: Inhibition of human NH-12 cell growth in a cell viability assay.

[37] = system: A3-KAW; format: functional, cell-based;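 further: growth inhibition of human A3-KAW cells, read out with a cell viability assay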
Description: SANGER: Inhibition of human A3-KAW cell growth in a cell viability assay.

[38] = system: ALL-PO; format: functional, cell-based;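 further: growth inhibition of ALL-PO cells, read out by a cell viability assay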
Description: SANGER: Inhibition of human ALL-PO cell growth in a cell viability assay.

[39] = system: BB30-HNC; format: functional, cell-based;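 further: growth inhibition of the cultured cell line, read out by a cell viability assay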
Description: SANGER: Inhibition of human BB30-HNC cell growth in a cell viability assay.

[40] = system: EW-16; format: functional, cell-based;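 further: growth inhibition of human EW-16 cells, read out as cell viability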
Description: SANGER: Inhibition of human EW-16 cell growth in a cell viability assay.

[41] = system: SK-LMS-1; format: functional, cell-based;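 further: growth inhibition of human SK-LMS-1 cells, read out with a cell viability assay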
Description: SANGER: Inhibition of human SK-LMS-1 cell growth in a cell viability assay.

[42] = system: CAS-1; format: functional, cell-based;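 further: growth inhibition of CAS-1 cells, measured with a cell viability assay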
Description: SANGER: Inhibition of human CAS-1 cell growth in a cell viability assay.

[43] = system: BV-173; format: functional, cell-based
Description: SANGER: Inhibition of human BV-173 cell growth in a cell viability assay.

[44] = system: NB13; format: functional, cell-based;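 further: cell viability readout measuring growth inhibition of human NB13 cells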
Description: SANGER: Inhibition of human NB13 cell growth in a cell viability assay.

[45] = system: 8-MG-BA; format: functional, cell-based;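 further: growth inhibition of 8-MG-BA cells, read out with a cell viability assay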
Description: SANGER: Inhibition of human 8-MG-BA cell growth in a cell viability assay.

[46] = system: K5; format: functional, cell-based
Description: SANGER: Inhibition of human K5 cell growth in a cell viability assay.

[47] = system: SJSA-1; format: functional, cell-based;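 further: growth inhibition of human SJSA-1 cells, read out through a cell viability measurement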
Description: SANGER: Inhibition of human SJSA-1 cell growth in a cell viability assay.

[48] = system: KGN; format: functional, cell-based;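 further: growth inhibition of KGN cells, read out with a cell viability assay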
Description: SANGER: Inhibition of human KGN cell growth in a cell viability assay.

[49] = system: ACN; format: functional, cell-based;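 further: growth inhibition of the human ACN cell line, read out via cell viability testing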
Description: SANGER: Inhibition of human ACN cell growth in a cell viability assay.

[50] = system: P30-OHK; format: functional, cell-based;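 further: growth inhibition of the P30-OHK cell line, read out with a cell viability assay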
Description: SANGER: Inhibition of human P30-OHK cell growth in a cell viability assay.

[51] = system: NCI-H1581; format: functional, cell-based;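 further: cell growth inhibition read out by a viability assay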
Description: SANGER: Inhibition of human NCI-H1581 cell growth in a cell viability assay.

[52] = system: EM-2; format: functional, cell-based;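 further: growth inhibition of EM-2 cells, read out with a cell viability assay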
Description: SANGER: Inhibition of human EM-2 cell growth in a cell viability assay.

[53] = system: EW-1; format: functional, cell-based;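 further: growth inhibition of the human EW-1 cell line, read out by a cell viability assay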
Description: SANGER: Inhibition of human EW-1 cell growth in a cell viability assay.

[54] = system: ML-2; format: functional, cell-based;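 further: growth inhibition of ML-2 cells, measured with a cell viability readout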
Description: SANGER: Inhibition of human ML-2 cell growth in a cell viability assay.

[55] = system: HOP-62; format: functional, cell-based;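 further: cell growth inhibition determined with a viability assay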
Description: SANGER: Inhibition of human HOP-62 cell growth in a cell viability assay.

[56] = system: EW-18; format: functional, cell-based;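 further: growth inhibition of EW-18 cells, read out by a cell viability assay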
Description: SANGER: Inhibition of human EW-18 cell growth in a cell viability assay.

[57] = system: SW684; format: functional, cell-based;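 further: growth inhibition of human SW684 cells, measured by a cell viability assay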
Description: SANGER: Inhibition of human SW684 cell growth in a cell viability assay.

[58] = system: LS-1034; format: functional, cell-based
Description: SANGER: Inhibition of human LS-1034 cell growth in a cell viability assay.

[59] = system: SF-539; format: functional, cell-based;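 further: Read-out is a cell viability assay, with IC50 reflecting inhibition of cell growth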
Description: SANGER: Inhibition of human SF539 cell growth in a cell viability assay.

[60] = system: SW872; format: functional, cell-based
Description: SANGER: Inhibition of human SW872 cell growth in a cell viability assay.

[61] = system: OS-RC-2; format: functional, cell-based
Description: SANGER: Inhibition of human OS-RC-2 cell growth in a cell viability assay.

[62] = system: BB65-RCC; format: functional, cell-based
Description: SANGER: Inhibition of human BB65-RCC cell growth in a cell viability assay.

[63] = system: QIMR-WIL; format: functional, cell-based
Description: SANGER: Inhibition of human QIMR-WIL cell growth in a cell viability assay.

[64] = system: HCE-4; format: functional, cell-based
Description: SANGER: Inhibition of human HCE-4 cell growth in a cell viability assay.

[65] = system: TE-11; format: functional, cell-based
Description: SANGER: Inhibition of human TE-11 cell growth in a cell viability assay.

[66] = system: IA-LM; format: functional, cell-based
Description: SANGER: Inhibition of human IA-LM cell growth in a cell viability assay.

## CCn1c(-c2nonc2N)nc2cnc(Oc3cccc(NC(=O)c4ccc(OCCN5CCOCC5)cc4)c3)cc21 [GSK-269962A]
[1]
  IC50: > 2.5 µM
[2]
  IC50: > 2.5 µM
[3]
  IC50: > 2.5 µM
[4]
  IC50: > 2.5 µM
[5]
  IC50: > 2.5 µM
[6]
  IC50: > 2.5 µM
[7]
  IC50: > 2.5 µM
[8]
  IC50: > 2.5 µM
[9]
  IC50: > 2.5 µM
[10]
  IC50: 0.644 µM
[11]
  IC50: > 2.5 µM
[12]
  IC50: > 2.5 µM
[13]
  IC50: > 2.5 µM
[14]
  IC50: > 2.5 µM
[15]
  IC50: > 2.5 µM
[16]
  IC50: > 2.5 µM
[17]
  IC50: > 2.5 µM
[18]
  IC50: > 2.5 µM
[19]
  IC50: > 2.5 µM
[20]
  IC50: > 2.5 µM
[21]
  IC50: > 2.5 µM
[22]
  IC50: > 2.5 µM
[23]
  IC50: 1.26 µM
[24]
  IC50: > 2.5 µM
[25]
  IC50: > 2.5 µM
[26]
  IC50: > 2.5 µM
[27]
  IC50: > 2.5 µM
[28]
  IC50: > 2.5 µM
[29]
  IC50: > 2.5 µM
[30]
  IC50: > 2.5 µM
[31]
  IC50: > 2.5 µM
[32]
  IC50: > 2.5 µM
[33]
  IC50: > 2.5 µM
[34]
  IC50: 0.0669 µM
[35]
  IC50: > 2.5 µM
[36]
  IC50: > 2.5 µM
[37]
  IC50: > 2.5 µM
[38]
  IC50: > 2.5 µM
[39]
  IC50: > 2.5 µM
[40]
  IC50: > 2.5 µM
[41]
  IC50: > 2.5 µM
[42]
  IC50: 0.847 µM
[43]
  IC50: > 2.5 µM
[44]
  IC50: 2.31 µM
[45]
  IC50: > 2.5 µM
[46]
  IC50: > 2.5 µM
[47]
  IC50: 1.05 µM
[48]
  IC50: 0.567 µM
[49]
  IC50: > 2.5 µM
[50]
  IC50: > 2.5 µM
[51]
  IC50: > 2.5 µM
[52]
  IC50: 2.46 µM
[53]
  IC50: > 2.5 µM
[54]
  IC50: > 2.5 µM
[55]
  IC50: > 2.5 µM
[56]
  IC50: > 2.5 µM
[57]
  IC50: > 2.5 µM
[58]
  IC50: > 2.5 µM
[59]
  IC50: 1.29 µM
[60]
  IC50: 0.887 µM
[61]
  IC50: > 2.5 µM
[62]
  IC50: > 2.5 µM
[63]
  IC50: 0.49 µM

## CCCS(=O)(=O)Nc1ccc(F)c(C(=O)c2c[nH]c3ncc(Cl)cc23)c1F [PLX-4720]
[1]
  IC50: > 10 µM
[2]
  IC50: > 10 µM
[3]
  IC50: > 10 µM
[4]
  IC50: > 10 µM
[5]
  IC50: 1.61 µM
[6]
  IC50: > 10 µM
[7]
  IC50: > 10 µM
[8]
  IC50: > 10 µM
[64]
  IC50: > 10 µM
[9]
  IC50: > 10 µM
[10]
  IC50: > 10 µM
[11]
  IC50: 0.39 µM
[12]
  IC50: > 10 µM
[13]
  IC50: 7.37 µM
[14]
  IC50: > 10 µM
[15]
  IC50: > 10 µM
[16]
  IC50: 0.363 µM
[17]
  IC50: > 10 µM
[18]
  IC50: > 10 µM
[20]
  IC50: > 10 µM
[21]
  IC50: > 10 µM
[22]
  IC50: > 10 µM
[23]
  IC50: > 10 µM
[24]
  IC50: > 10 µM
[25]
  IC50: > 10 µM
[26]
  IC50: > 10 µM
[27]
  IC50: > 10 µM
[28]
  IC50: > 10 µM
[29]
  IC50: > 10 µM
[30]
  IC50: 3.4 µM
[31]
  IC50: > 10 µM
[32]
  IC50: 2.12 µM
[33]
  IC50: > 10 µM
[34]
  IC50: > 10 µM
[35]
  IC50: > 10 µM
[65]
  IC50: > 10 µM
[36]
  IC50: > 10 µM
[37]
  IC50: > 10 µM
[38]
  IC50: > 10 µM
[66]
  IC50: > 10 µM
[39]
  IC50: > 10 µM
[40]
  IC50: > 10 µM
[41]
  IC50: > 10 µM
[42]
  IC50: > 10 µM
[43]
  IC50: 0.796 µM
[44]
  IC50: 4.49 µM
[45]
  IC50: 6.18 µM
[46]
  IC50: 0.761 µM
[47]
  IC50: > 10 µM
[48]
  IC50: > 10 µM
[49]
  IC50: 0.385 µM
[50]
  IC50: > 10 µM
[51]
  IC50: > 10 µM
[52]
  IC50: > 10 µM
[53]
  IC50: > 10 µM
[54]
  IC50: > 10 µM
[55]
  IC50: > 10 µM
[56]
  IC50: > 10 µM
[57]
  IC50: > 10 µM
[58]
  IC50: > 10 µM
[59]
  IC50: > 10 µM
[60]
  IC50: > 10 µM
[61]
  IC50: > 10 µM
[62]
  IC50: > 10 µM
[63]
  IC50: > 10 µM
